# Assay results published in patent US5853695A, “Method for palliation of pain in human bone cancer using therapeutic tin-117m compositions” (Brookhaven Science Associates LLC, priority 1996, dated 1998).
# Entries after “also recorded” stand apart in the source; their conditions may differ.
# What was measured:
# [1] = system: white blood cells and platelets; experiment: Hemopoietic toxicity by complete blood counts (white blood cells, platelets); format: in vivo, human
# Procedure: (§1) Prior to initiation of therapy a Tc-99m MDP bone imaging study was obtained. Complete blood counts, including a differential and platelet count, electrolytes, and blood chemistries were obtained. No radiotherapy or chemotherapy had been administered to the patients in the prior month. Hormonal therapy was continued if the patient had been on hormonal therapy for more than three months without improvement in their clinical status.
# (§2) Sn-117m (Sn^4+) DTPA was administered through an inlying infusion line over a period of 5-10 minutes. […] A complete urine collection was obtained over 4 days and a blood specimen obtained on the fourth day. This enabled an estimate of bone uptake. Two imaging studies to monitor the Sn-117m distribution were obtained in the first week and repeat chemistries were obtained at one week. Complete blood counts were obtained weekly for at least two months and less frequently thereafter. A repeat Tc-99m MDP bone imaging study was performed at two months.
# As a result, a dosage of the Sn-117m chelate within the range found to be effective for consistent pain reduction can also be expected to be non-toxic to the patient.
# [2] = system: bone pain; experiment: Palliation of bone pain in human subjects (clinical study, patient pain records); format: in vivo; design: key to Result (pain relief): -: No relief; +: Partial Relief; ++: Good Relief
# Procedure: (§3) Fourteen patients were enrolled in a controlled clinical study, including 9 males and 5 females. The patients were administered an Sn-117m chelate complex-containing composition (described above in Example 3) sufficient to provide between 33 and 156 μCi/kg body weight. The protocol was approved by an institutional review board and the United States Food and Drug Administration (FDA). All subjects gave informed consent.
# as §1, §2
# Patients maintained a record of pain levels and sites daily for two weeks and then twice a week for the next 6 weeks.
# [3] = system: bone; experiment: Bone uptake estimated from 4-day urine collection and blood specimen (% Total in Bone); format: in vivo, human; conditions: i.v. infusion
# Procedure: as §3, §2
# [4] = system: bone; experiment: External gamma camera / SPECT imaging of distribution in patients; format: in vivo, human
# Procedure: Also note that the dose of the Sn-117m compound is within the range of dosages found to palliate pain according to the method of the invention.
# The right panel depicts a three-dimensional reprojection image from SPECT (Single Photon Emission Computed Tomography) of a portion of the skeleton in the same patient.
# as §2
substance,measurement,setting,value
Sn-117m (Sn^4+) diethylenetriaminepentaacetic acid [Sn-117m (Sn^4+) DTPA],white blood cell (WBC) count or platelet count,"[1]; Patient 11, over three months following single administration (10.4 mCi)",no decrease
same,hemopoietic toxicity,[1]; all patients in the study,no patients in the study showed evidence of hemopoietic toxicity
same,Result (pain relief),"[2]; Patient 4, prostate cancer, 61 kg, single 4.70 mCi (0.077 mCi/kg)",-
same,Result (pain relief),"[2]; Patient 6, unknown primary cancer, 108 kg, single 8.41 mCi (0.078 mCi/kg)",+
same,Result (pain relief),"[2]; Patient 7, prostate cancer, 59 kg, single 4.95 mCi (0.084 mCi/kg)",++
same,Result (pain relief),"[2]; Patient 8, lung cancer, 61 kg, single 8.95 mCi (0.146 mCi/kg)",++
same,Result (pain relief),"[2]; Patient 9, breast cancer, 59 kg, single 8.41 mCi (0.142 mCi/kg)",++
same,Result (pain relief),"[2]; Patient 10, breast cancer, 59 kg, single 8.00 mCi (0.135 mCi/kg)",++
same,Result (pain relief),"[2]; Patient 11, prostate cancer, 67 kg, single 10.46 mCi (0.156 mCi/kg)",+
same,Result (pain relief),"[2]; Patient 12, prostate cancer, 93 kg, single 14.46 mCi (0.156 mCi/kg)",++
same,Result (pain relief),"[2]; Patient 13, prostate cancer, 118 kg, single 15.49 mCi (0.131 mCi/kg)",++
same,Result (pain relief),"[2]; Patient 14, breast cancer, 50 kg, single 7.54 mCi (0.151 mCi/kg)",+
same,"response to treatment, lower dose",[2]; patients given a lower dose,"variable response to the treatment, in one case indicating that no relief was had"
same,"relief of pain, higher dose","[2]; seven patients who received more than about 9 mCi/70 kg (~129 μCi/kg), listed as Sn-117m chelates",all experienced relief of pain; also recorded: five experienced excellent relief; also recorded: two experienced partial relief
same,"relief or palliation of pain, overall","[2]; single administrations, 33 to 156 μCi/kg, fourteen patients",dose-dependent relief or palliation of pain
same,% Total in Bone,"[3]; Patient 9, breast cancer, 8.41 mCi (0.142 mCi/kg)",72.1%
same,% Total in Bone,"[3]; Patient 10, breast cancer, 8.00 mCi (0.135 mCi/kg)",59.2%
same,% Total in Bone,"[3]; Patient 11, prostate cancer, 10.46 mCi (0.156 mCi/kg)",58.0%
same,% Total in Bone,"[3]; Patient 12, prostate cancer, 14.46 mCi (0.156 mCi/kg)",34.1%
same,% Total in Bone,"[3]; Patient 13, prostate cancer, 15.49 mCi (0.131 mCi/kg)",71.3%
same,% Total in Bone,"[3]; Patient 14, breast cancer, 7.54 mCi (0.151 mCi/kg)",69.2%
same,"distribution in bone, whole body and SPECT images","[4]; cancer patient with bone metastases, 4 days after 5 mCi, FIG. 2",patchy bright spots denote spread of cancer to bone
same,distribution in bone by gamma camera imaging compared with technetium-99m-MDP,"[4]; patient with prostate cancer spread to bone, 4 days after 10 mCi, FIG. 1",similarity of distribution of the two nuclides
